Test results taken from patent US9102648B1, “Bioavailable diacylhydrazine ligands for modulating the expression of exogenous genes via an ecdysone receptor complex” (Intrexon Corporation, priority 2003, dated 2015).
Read-outs that look alike come from different tables or passages of the source.

Key:
[1] = target: T1, Bombyx mori EcR (VP16 fusion, CVBE switch construct) (Bombyx mori, UniProt P49881); assay: Z3 Assay (HEK-293 cells with CVBE and 6XEcRE LacZ, β-galactosidase reporter); details: for Fold Induction, Z3 Assay, 3.3 uM: 3.3 uM ligand; for Fold Induction, Z3 Assay, 3.3 uM / Fold Induction, Z3 Assay, 33 uM: ligand treated / DMSO treated cells; for Fold Induction, Z3 Assay, 33 uM: 33 uM ligand; for Z3 assay Rel Max FI: maximum fold induction at any concentration relative to that of GS-E ligand; for fold induction at 3.3 µM: HEK293, read-out: Fold Induction, Z3 Assay, 3.3 uM; for fold induction at 33 µM: HEK293, read-out: Fold Induction, Z3 Assay, 33 uM
T1 sequence (P49881 86-606): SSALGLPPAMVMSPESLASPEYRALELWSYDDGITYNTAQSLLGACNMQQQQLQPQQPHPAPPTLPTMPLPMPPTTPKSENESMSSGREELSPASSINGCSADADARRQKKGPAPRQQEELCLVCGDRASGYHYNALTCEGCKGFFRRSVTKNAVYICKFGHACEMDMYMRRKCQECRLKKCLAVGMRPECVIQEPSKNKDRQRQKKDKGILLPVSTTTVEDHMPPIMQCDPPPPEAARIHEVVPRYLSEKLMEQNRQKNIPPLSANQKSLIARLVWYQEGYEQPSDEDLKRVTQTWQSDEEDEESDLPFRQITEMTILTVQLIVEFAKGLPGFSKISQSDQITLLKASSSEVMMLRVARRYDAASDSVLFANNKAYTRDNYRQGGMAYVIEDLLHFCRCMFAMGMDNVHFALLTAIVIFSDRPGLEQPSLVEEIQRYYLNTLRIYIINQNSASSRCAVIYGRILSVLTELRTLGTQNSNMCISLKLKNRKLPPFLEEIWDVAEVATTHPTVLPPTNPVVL
T1 sequence (P19793 1-462 partner): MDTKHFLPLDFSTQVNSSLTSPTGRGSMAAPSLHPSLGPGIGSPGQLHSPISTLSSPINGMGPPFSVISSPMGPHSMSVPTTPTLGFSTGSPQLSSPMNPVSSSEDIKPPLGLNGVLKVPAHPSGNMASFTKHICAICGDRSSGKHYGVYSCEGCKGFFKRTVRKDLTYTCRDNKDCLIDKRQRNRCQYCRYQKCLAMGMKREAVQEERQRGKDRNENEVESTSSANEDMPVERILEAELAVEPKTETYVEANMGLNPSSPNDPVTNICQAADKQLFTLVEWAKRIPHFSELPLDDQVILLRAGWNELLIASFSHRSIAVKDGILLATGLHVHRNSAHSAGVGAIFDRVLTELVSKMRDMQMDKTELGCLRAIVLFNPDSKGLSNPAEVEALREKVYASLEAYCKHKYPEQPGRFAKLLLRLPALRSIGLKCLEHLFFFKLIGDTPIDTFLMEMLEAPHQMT

[2] = target: GAL4 DBD-CfEcR(DEF)/VP16AD-MmRXRE (Choristoneura fumiferana, UniProt O77240); assay: 13B3 Assay (CHO stable cell line, luciferase reporter); details: for Fold Induction, 13B3 Assay, 3.3 uM: 3.3 uM ligand; for Fold Induction, 13B3 Assay, 3.3 uM / Fold Induction, 13B3 Assay, 33 uM: RLU ligand treated / RLU DMSO treated cells; for Fold Induction, 13B3 Assay, 33 uM: 33 uM ligand; for 13B3 assay Rel Max FI: maximum fold induction at any concentration relative to that of GS-E ligand, CHO 13B3 cells; for fold induction at 3.3 µM: read-out: Fold Induction, 13B3 Assay, 3.3 uM; for fold induction at 33 µM: read-out: Fold Induction, 13B3 Assay, 33 uM
Summary of the method: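 Ligands dosed at 8 levels from 33 to 0.01 μM (DMSO stocks diluted 300-fold) onto the 13B3 CHO line carrying GAL4-DBD/CfEcR-DEF, VP16/MmRXR-DE and a GAL4-responsive luciferase gene.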

[3] = read-out: Z3 assay EC50, HEK-293 Z3 cells, β-galactosidase reporter, average of two wells
[4] = read-out: 13B3 EC50, CHO 13B3 stable cell line, luciferase reporter, 48 h, average of two wells

Row | Compound | Fold Induction, Z3 Assay, 3.3 uM ([1]; average of two wells) | Fold Induction, Z3 Assay, 33 uM ([1]; average of two wells) | Z3 assay Rel Max FI ([1]; HEK-293 Z3 cells) | EC50 [1, 3] [nM] | Fold Induction, 13B3 Assay, 3.3 uM ([2]; average of two wells) | Fold Induction, 13B3 Assay, 33 uM ([2]; average of two wells) | 13B3 assay Rel Max FI [2] | EC50 [2, 4] [nM] | EC50 [1] [nM] | fold induction at 3.3 µM [1] | fold induction at 33 µM [1] | EC50 [2] [nM] | fold induction at 3.3 µM [2] | fold induction at 33 µM [2]
1 | Cc1c(C(=O)NN(C(=O)c2cc(F)cc(F)c2)C(C)(C)C)ccc2c1CCCO2 [RG-115207] | 354 | 508 | 0.923 | 257 | 7260 | 7959 | 0.707 | 618 | – | – | – | – | – | –
2 | CCc1c(OC)cccc1C(=O)NN(C(=O)c1cc(C)cc(COC(C)=O)c1)C(C)(C)C [RG-115223] | 323 | 1299 | 0.925 | 1900 | 8 | 3437 | 1.346 | > 50000 | – | – | – | – | – | –
3 | Cc1c(C(=O)NN(C(=O)c2cc(F)c(F)cc2F)C(C)(C)C)ccc2c1CCCO2 [RG-115229] | – | 1032 | – | 427 | 599 | 709 | 0.418 | 2250 | – | – | – | – | – | –
4 | CCc1c(C(=O)NN(C(=O)c2ccccc2OC)C(C)(C)C)ccc2c1OCCO2 [RG-115244] | 283 | 816 | 0.959 | 85 | 2404 | 573 | 0.663 | 369 | – | – | – | – | – | –
5 | CCc1c(OC)cccc1C(=O)NN(C(=O)c1cc(Cl)ccc1OC)C(C)(C)C [RG-115253] | – | 832 | – | 269 | – | 471 | – | – | – | – | – | – | – | –
6 | CCc1c(OC)cccc1C(=O)NN(C(=O)c1cc(Cl)ccc1[N+](=O)[O-])C(C)(C)C [RG-115257] | 297 | 691 | 0.885 | 204 | 820 | 354 | 0.742 | 886 | – | – | – | – | – | –
7 | CCc1c(OC)cccc1C(=O)NN(C(=O)c1cc(C)cc(C)c1)C(C)(C)C=NO [RG-115258, 2-ethyl-3-methoxy-benzoic acid N′-(3,5-dimethyl-benzoyl)-N′-(2-hydroxyimino-1,1-dimethyl-ethyl)-hydrazide] | – | – | 0.882 | – | – | – | 1.334 | – | 646 | 382 | 1120 | 27100 | 144 | 3740
8 | Cc1c(C(=O)NN(C(=O)c2cccc(F)c2)C(C)(C)C)ccc2c1CCCO2 [RG-115278] | 158 | 1225 | 0.893 | 257 | 1950 | 1050 | 0.823 | 630 | – | – | – | – | – | –
9 | CCc1c(C(=O)NN(C(=O)c2cc(Cl)nc(Cl)c2)C(C)(C)C)ccc2c1OCCO2 [RG-115297] | 443 | 604 | 0.872 | 66 | 1364 | 304 | 0.737 | 1360 | – | – | – | – | – | –
10 | CCc1c(OC)cccc1C(=O)NN(C(=O)c1cc(F)c(Cl)cc1Cl)C(C)(C)C [RG-115302] | – | 404 | – | 275 | 521 | 648 | 0.624 | 2000 | – | – | – | – | – | –
11 | COc1cccc(C(=O)NN(C(=O)c2cc(C)cc(C)c2)C(C)(C)C)c1N [RG-115378] | 488 | 1464 | 0.947 | 324 | 1778 | 2424 | 0.655 | 1760 | – | – | – | – | – | –
12 | Cc1ccc([N+](=O)[O-])c(C(=O)N(NC(=O)c2ccc3c(c2C)OCCO3)C(C)(C)C)c1 [RG-115384] | 337 | – | 0.904 | 166 | 2753 | 2277 | 0.426 | 320 | – | – | – | – | – | –
13 | CCc1c(OC)cccc1C(=O)NN(C(=O)c1cc(C)cc(C)c1)C(C)(C)C=O [RG-115407, 2-ethyl-3-methoxy-benzoic acid N′-(3,5-dimethyl-benzoyl)-N′-(1,1-dimethyl-2-oxo-ethyl)-hydrazide] | – | – | 0.906 | – | – | – | 1.048 | – | 347 | 391 | 879 | 7000 | 2480 | 2610
14 | Cc1c(C(=O)NN(C(=O)c2ccc(F)c(F)c2)C(C)(C)C)ccc2c1CCCO2 [RG-115416] | 164 | 1116 | 1.869 | 91 | 3618 | 2737 | 12.104 | 938 | – | – | – | – | – | –
15 | Cc1ccc(F)c(C(=O)N(NC(=O)c2ccc3c(c2C)CCCO3)C(C)(C)C)c1 [RG-115499] | 173 | 641 | 0.954 | 170 | 1182 | 731 | 0.489 | 328 | – | – | – | – | – | –
16 | CCc1c(C(=O)NN(C(=O)c2cc(F)ccc2F)C(C)(C)C)ccc2c1OCCO2 [RG-115508] | 199 | 680 | 0.787 | 537 | 310 | 191 | 0.805 | 849 | – | – | – | – | – | –
17 | CCc1c(OC)cccc1C(=O)NN(C(=O)c1cc(C)cc(C)c1)C(C)(C)C=NCCO [RG-115511] | 10 | 570 | 0.66 | 39000 | 1 | 98 | 0.07 | > 50000 | – | – | – | – | – | –
18 | CCc1c(C(=O)NN(C(=O)c2ccc(Cl)cc2F)C(C)(C)C)ccc2c1OCCO2 [RG-115514] | 383 | 658 | 0.970 | 56 | 4009 | 515 | 0.550 | 541 | – | – | – | – | – | –
19 | COc1ccc(C(=O)N(NC(=O)c2ccc3c(c2C)OCCO3)C(C)(C)C)c(OC)n1 [RG-115517, 2,6-dimethoxy-nicotinic acid N-tert-butyl-N′-(5-methyl-2,3-dihydro-benzo[1,4]dioxine-6-carbonyl)-hydrazide] | – | – | 0.923 | – | – | – | 0.675 | – | 89 | 408 | – | 355 | 8400 | 12000
